From PubChem BioAssay (NCI)
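Five concentrations, 48 hours, 96-well plates. TGI: concentration producing complete growth inhibition.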

Tests used:
Assay in all cases: NCI anticancer screen, dose series, 48 h
A498 renal = test system: A498 renal
SK-MEL-5 melanoma = test system: SK-MEL-5 melanoma
MOLT-4 leukemia = test system: MOLT-4 leukemia
MDA-N = test system: MDA-N
HT29 colon = test system: HT29 colon
SF-295 CNS = test system: SF-295 CNS
IGROV1 ovarian = test system: IGROV1 ovarian
NCI-H226 lung = test system: NCI-H226 lung
M14 melanoma = test system: M14 melanoma
SF-268 CNS = test system: SF-268 CNS
SK-MEL-28 melanoma = test system: SK-MEL-28 melanoma
LOX IMVI melanoma = test system: LOX IMVI melanoma
CAKI-1 renal = test system: CAKI-1 renal
UACC-62 melanoma = test system: UACC-62 melanoma
SN12C renal = test system: SN12C renal
HOP-92 NSCLC = test system: HOP-92 NSCLC
NCI-H23 lung = test system: NCI-H23 lung
OVCAR-5 ovarian = test system: OVCAR-5 ovarian
SNB-75 CNS = test system: SNB-75 CNS
CCRF-CEM leukemia = test system: CCRF-CEM leukemia

Row | Compound | TGI (A498 renal) [µM] | TGI (SK-MEL-5 melanoma) [µM] | TGI (MOLT-4 leukemia) [µM] | TGI (MDA-N) [µM] | TGI (HT29 colon) [µM] | TGI (SF-295 CNS) [µM] | TGI (IGROV1 ovarian) [µM] | TGI (NCI-H226 lung) [µM] | TGI (M14 melanoma) [µM] | TGI (SF-268 CNS) [µM] | TGI (SK-MEL-28 melanoma) [µM] | TGI (LOX IMVI melanoma) [µM] | TGI (CAKI-1 renal) [µM] | TGI (UACC-62 melanoma) [µM] | TGI (SN12C renal) [µM] | TGI (HOP-92 NSCLC) [µM] | TGI (NCI-H23 lung) [µM] | TGI (OVCAR-5 ovarian) [µM] | TGI (SNB-75 CNS) [µM] | TGI (CCRF-CEM leukemia) [µM]
1 | O=c1[nH]nc(Cn2c3ccc(Br)cc3c3nc4ccccc4nc32)n1C1CCCCC1 | 57.4 | > 100 | > 100 | > 100 | > 100 | > 100 | > 100 | > 100 | > 100 | > 100 | 59.2 | > 100 | > 100 | 81.1 | > 100 | 63.3 | 40.9 | > 100 | > 100 | –
2 | COc1ccccc1N=N/C(=N\NC(=O)c1ccc(C)cc1)c1ccc(N(CCC#N)CCC#N)cc1C | > 100 | 53.6 | > 100 | > 100 | > 100 | > 100 | > 100 | 28.5 | > 100 | > 100 | > 100 | > 100 | > 100 | – | > 100 | > 100 | 94.4 | > 100 | > 100 | > 100
3 | O/N=C(\CC(O)(C(F)(F)F)C(F)(F)F)c1cccc(Cl)c1 | > 100 | 31.6 | 38.8 | > 100 | > 100 | > 100 | 84.4 | 60.2 | 62.7 | – | > 100 | 62.5 | 68.7 | > 100 | – | 56.6 | 49.2 | > 100 | 57.6 | 47.4
4 | Nc1c(N2CCOCC2)c(=O)nc2[nH]/c(=C\c3ccccc3)c(=O)n12 | > 100 | > 100 | > 100 | > 100 | > 100 | > 100 | > 100 | > 100 | > 100 | > 100 | > 100 | > 100 | > 100 | – | > 100 | > 100 | > 100 | > 100 | > 100 | > 100
5 | O=C1NC(N2CCCCC2)=N/C1=C\c1ccccc1O | > 100 | > 100 | > 100 | > 100 | > 100 | > 100 | > 100 | > 100 | > 100 | > 100 | > 100 | > 100 | > 100 | – | > 100 | > 100 | > 100 | > 100 | > 100 | > 100
6 | C=C1C(=O)OC2CC(=C)C3CC=C(C)C3CC12 (configuration not stated) | > 100 | > 100 | 46.8 | 30.6 | 28.5 | > 100 | 55.5 | 43 | 40.9 | > 100 | 77.3 | 23.5 | 28.2 | 25.3 | 31.7 | 28.7 | – | > 100 | – | > 100
